Tests used:
[1] = biological target: T1, p23 (Homo sapiens, UniProt Q15185); assay: Affinity chromatography on EGCG-conjugated Sepharose, in vitro translated p23; type: binding; conditions: 35S-p23 in vitro translated in RRL
T1 construct: made in house; host or cells: coupled transcription/translation in rabbit reticulocyte lysate (TNT, Promega), 35S-labelled
T1 sequence (Q15185 1-160): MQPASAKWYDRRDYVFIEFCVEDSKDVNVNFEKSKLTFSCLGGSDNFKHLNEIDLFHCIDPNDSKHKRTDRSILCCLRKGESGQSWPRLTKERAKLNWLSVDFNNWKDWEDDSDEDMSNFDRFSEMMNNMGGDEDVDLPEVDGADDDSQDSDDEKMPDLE
Excerpt: (§1) Murine AhR and ARNT cDNA (obtained from J. Whitlock and O. Hankinson, respectively) were inserted into pcDNA3 (Invitrogen, Carlsbad, Calif.). Chicken hsp90 constructs (FIG. 5), c90711hsp (wild-type), c90G94D (wild-type point mutant gly94→Asp (Grenert et al., J. Biol. Chem. 272:23843-23850 (1997), which is hereby incorporated by reference in its entirety), c90D92A (wild-type point mutant Asp92→Ala (Sullivan et al., J. Biol. Chem. 268:20373-20379 (1993), which is hereby incorporated by reference in its entirety), c90N221 (wild-type truncation mutant encoding a.a. 221-728 (Sullivan et al., J. Biol. Chem. 268:20373-20379 (1993), which is hereby incorporated by reference in its entirety)), c90N303 (a.a. 303-728) and c90N538 (a.a. 538-728) were kind gifts from Dr. D. Toft (Rochester, Minn.). The C-terminal truncation mutant c900507 (a.a. 1-221) was obtained from Dr. L. Neckers (Rockville, Md.) (Grenert et al., J. Biol. Chem. 272:23843-23850 (1997); Marcu et al., J. Biol. Chem. 275:37181-37186 (2000), which are hereby incorporated by reference in their entirety). Human p23 cDNA was excised from pQE80-p23 (obtained from W. Chan Stockton, Calif.) by sequential digests using the restriction enzymes Sad (3′-end) and BamHI (5′-end) and inserted into the similarly digested pET28a (Novagen, Madison, Wis.). […]

[2] = system: AhR; assay: Immunocytochemistry of AhR subcellular localization in Hepa cells; type: cell-based, mouse; conditions: 1 h
Procedure: Hepa cells were plated onto four-well chamber slides (Becton Dickinson, Bedford, Mass.) at a density of 2.0×10^4 and incubated overnight. Cells were treated with either vehicle (DMSO), TCDD (150 pM), EGCG alone (200 μM), or EGCG in the presence of TCDD (150 pM) for 1 h. Cells were fixed with 3.7% formalin at room temperature for 10 minutes, followed by a four minute incubation in anhydrous methanol at 4° C. All antibodies were filtered through a 0.45 micron filter before staining Cells were blocked for one hour in phosphate buffered saline containing 4% BSA, incubated with anti-AhR at a 1:2000 dilution for two hours at room temperature, followed by a one hour incubation with 1:1000 anti-rabbit Alexa-Fluor conjugated secondary antibody (Molecular Probes, Eugene Oreg.). Nuclei were stained with DAPI (0.5 μg/ml) (Molecular Probes) for three minutes at room temperature. Slides were mounted with 50% glycerol and coverslipped. AhR staining and nuclear staining were visualized using a Nikon Eclipse TS110 fluorescent microscope (40× magnification). Fluorescent images were captured using SPOT advanced software.

[3] = biological target: chicken hsp90 (Gallus gallus, UniProt P11501); assay: Affinity chromatography on EGCG-conjugated Sepharose, hsp90 point and truncation mutants; type: binding; set-up: made in house; host or cells: coupled transcription/translation in rabbit reticulocyte lysate (TNT, Promega), 35S-labelled; conditions: smallest truncation mutant N538, amino acids 538-728
Excerpt: as §1

Sequence of chicken hsp90 (P11501 538-728): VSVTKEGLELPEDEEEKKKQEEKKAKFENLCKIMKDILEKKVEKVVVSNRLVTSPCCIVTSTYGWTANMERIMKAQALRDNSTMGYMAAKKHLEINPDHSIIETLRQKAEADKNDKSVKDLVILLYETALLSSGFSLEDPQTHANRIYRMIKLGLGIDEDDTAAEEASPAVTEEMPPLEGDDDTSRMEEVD

## O=C(O[C@@H]1Cc2c(O)cc(O)cc2O[C@@H]1c1cc(O)c(O)c(O)c1)c1cc(O)c(O)c(O)c1 [EGCG, epigallocatechin gallate]
[1]
  binding of p23 to immobilized EGCG: incapable of binding immobilized EGCG
[2]; 200 μM EGCG with 150 pM TCDD
  effect on TCDD induced nuclear localization of the AhR: did not attenuate this TCDD induced nuclear localization
[2]; EGCG 200 μM or TCDD 150 pM
  subcellular localization of the AhR, treatment alone: remarkable redistribution of the AhR from the cytosol to the nucleus
[3]
  location of the binding site on hsp90: binding of EGCG occurs within this region of the protein
